Source: US20170050957A1, “4-AMINO-6-(HETEROCYCLIC)PICOLINATES AND 6-AMINO-2-(HETEROCYCLIC)PYRIMIDINE-4-CARBOXYLATES AND THEIR USE AS HERBICIDES” (Dow AgroSciences LLC, priority 2013, published 2017)
Like-named read-outs stand apart in the source and are kept apart here.

Key:
[1] = tested on: Key Broadleaf Weed and Crop Species; assay: Post-emergent Test II herbicidal activity (Table 15); assay type: in vivo; details: post-emergence, 336 h, 14 d; for pest or weed control at 35 g/ha: 35 g ai/ha; for pest or weed control at 70 g/ha: 70 g ai/ha; for pest or weed control at 140 g/ha: 140 g ai/ha
Procedure, shortened: (§1)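 Plants at first-second true leaf stage, grown 7-21 d in greenhouse (~15 h photoperiod, 23-29 °C day), were track-sprayed at 187 L/ha with compound in acetone/DMSO/water/isopropanol/crop oil/Triton X-155 at a high rate plus 1/2× to 1/16× dilutions. Injury scored visually after 14 d versus untreated plants, 0 (none) to 100% (complete kill).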

[2] = tested on: Key Grass and Sedge Weeds as well as Grass Crops; assay: Post-emergent Test II herbicidal activity (Table 16); assay type: in vivo; details: post-emergence, 336 h; for pest or weed control at 35 g/ha: 35 g ai/ha; for pest or weed control at 70 g/ha: 70 g ai/ha; for pest or weed control at 140 g/ha: 140 g ai/ha
Procedure, shortened: as §1

[3] = Abutilon theophrasti, velvetleaf (Abutilon theophrasti), read-out: Visual Growth Reduction (%) 14 Days After Application, ABUTH
[4] = Amaranthus retroflexus, redroot pigweed (Amaranthus retroflexus), read-out: Visual Growth Reduction (%) 14 Days After Application, AMARE
[5] = Brassica napus, oilseed rape, canola (Brassica napus), read-out: Visual Growth Reduction (%) 14 Days After Application, BRSNN
[6] = Chenopodium album, lambsquarters (Chenopodium album), read-out: Visual Growth Reduction (%) 14 Days After Application, CHEAL
[7] = Euphorbia heterophylla, wild poinsettia (Euphorbia heterophylla), read-out: Visual Growth Reduction (%) 14 Days After Application, EPHHL
[8] = Helianthus annuus, sunflower (Helianthus annuus), read-out: Visual Growth Reduction (%) 14 Days After Application, HELAN
[9] = Cyperus esculentus, yellow nutsedge (Cyperus esculentus), 14 d, read-out: Visual Growth Reduction (%) 14 Days After Application, CYPES
[10] = Echinochloa crus-galli, barnyardgrass (Echinochloa crus-galli), 14 d, read-out: Visual Growth Reduction (%) 14 Days After Application, ECHCG
[11] = Oryza sativa, rice (Oryza sativa), 14 d, read-out: Visual Growth Reduction (%) 14 Days After Application, ORYSA
[12] = Setaria faberi, giant foxtail (Setaria faberi), 14 d, read-out: Visual Growth Reduction (%) 14 Days After Application, SETFA
[13] = Triticum aestivum, wheat, spring (Triticum aestivum), 14 d, read-out: Visual Growth Reduction (%) 14 Days After Application, TRZAS
[14] = Zea mays, maize, corn (Zea mays), 14 d, read-out: Visual Growth Reduction (%) 14 Days After Application, ZEAMX
[15] = Echinochloa crus-galli, barnyardgrass (Echinochloa crus-galli), 14 days after application, read-out: Visual Growth Reduction (%) 14 Days After Application ECHCG
[16] = Oryza sativa, rice (Oryza sativa), 14 days after application, read-out: Visual Growth Reduction (%) 14 Days After Application ORYSA
[17] = Setaria faberi, giant foxtail (Setaria faberi), 14 days after application, read-out: Visual Growth Reduction (%) 14 Days After Application SETFA
[18] = Triticum aestivum, wheat, spring (Triticum aestivum), 14 days after application, read-out: Visual Growth Reduction (%) 14 Days After Application TRZAS
[19] = Zea mays, maize, corn (Zea mays), 14 days after application, read-out: Visual Growth Reduction (%) 14 Days After Application ZEAMX

`COC(=O)c1nc(-c2ccc3[nH]ccc3c2)c(F)c(N)c1Cl` [Compound 1.02, Methyl 4-amino-3-chloro-5-fluoro-6-(1H-indol-5-yl)picolinate] showed a pest or weed control at 35 g/ha [1, 3] of 0 to 29%, a pest or weed control at 70 g/ha [1, 3] of 0 to 29% and a pest or weed control at 140 g/ha [1, 3] of 0 to 29%. The pest or weed control at 70 g/ha [1, 4] was 85 to 94%, the pest or weed control at 140 g/ha [1, 4] was 85 to 94% and the pest or weed control at 35 g/ha [1, 5] was 0 to 29%. For the same compound, the pest or weed control at 70 g/ha [1, 5] was 0 to 29%, the pest or weed control at 140 g/ha [1, 5] was 0 to 29% and the pest or weed control at 35 g/ha [1, 6] was 75 to 84%. For the same compound, the pest or weed control at 70 g/ha [1, 6] was 85 to 94%, the pest or weed control at 140 g/ha [1, 6] was 95 to 100% and the pest or weed control at 35 g/ha [1, 7] was 45 to 59%. The pest or weed control at 70 g/ha [1, 7] was 45 to 59%, the pest or weed control at 140 g/ha [1, 7] was 60 to 74% and the pest or weed control at 35 g/ha [1, 8] was 45 to 59%. It also gave a pest or weed control at 70 g/ha [1, 8] of 60 to 74%, a pest or weed control at 140 g/ha [1, 8] of 60 to 74% and a pest or weed control at 35 g/ha [2, 9] of 0 to 29%. It also gave a pest or weed control at 70 g/ha [2, 9] of 0 to 29%, a pest or weed control at 140 g/ha [2, 9] of 0 to 29% and a pest or weed control at 35 g/ha [2, 10] of 0 to 29%. It also gave a pest or weed control at 70 g/ha [2, 10] of 0 to 29%, a pest or weed control at 140 g/ha [2, 10] of 45 to 59% and a pest or weed control at 35 g/ha [2, 11] of 0 to 29%. For the same compound, the pest or weed control at 70 g/ha [2, 11] was 0 to 29%, the pest or weed control at 140 g/ha [2, 11] was 0 to 29% and the pest or weed control at 35 g/ha [2, 12] was 0 to 29%. The pest or weed control at 70 g/ha [2, 12] was 0 to 29%, the pest or weed control at 140 g/ha [2, 12] was 0 to 29% and the pest or weed control at 35 g/ha [2, 13] was 0 to 29%. The pest or weed control at 70 g/ha [2, 13] was 0 to 29%, the pest or weed control at 140 g/ha [2, 13] was 0 to 29% and the pest or weed control at 35 g/ha [2, 14] was 0 to 29%. The pest or weed control at 70 g/ha [2, 14] was 0 to 29%, the pest or weed control at 140 g/ha [2, 14] was 0 to 29% and the melting point was 221 to 224 °C.

`COC(=O)c1nc(-c2ccc3ocnc3c2)c(F)c(N)c1Cl` [Compound 5.01] showed a pest or weed control at 35 g/ha [1, 3] of 60 to 74%, a pest or weed control at 70 g/ha [1, 3] of 60 to 74% and a pest or weed control at 140 g/ha [1, 3] of 60 to 74%. For the same compound, the pest or weed control at 35 g/ha [1, 4] was 75 to 84%, the pest or weed control at 70 g/ha [1, 4] was 85 to 94% and the pest or weed control at 140 g/ha [1, 4] was 85 to 94%. The pest or weed control at 35 g/ha [1, 5] was 85 to 94%, the pest or weed control at 70 g/ha [1, 5] was 95 to 100% and the pest or weed control at 140 g/ha [1, 5] was 95 to 100%. The pest or weed control at 35 g/ha [1, 6] was 60 to 74%, the pest or weed control at 70 g/ha [1, 6] was 85 to 94% and the pest or weed control at 140 g/ha [1, 6] was 85 to 94%. The pest or weed control at 70 g/ha [1, 7] was 95 to 100%, the pest or weed control at 35 g/ha [1, 8] was 85 to 94% and the pest or weed control at 70 g/ha [1, 8] was 85 to 94%. The pest or weed control at 140 g/ha [1, 8] was 95 to 100%, the pest or weed control at 35 g/ha [2, 15] was 75 to 84% and the pest or weed control at 70 g/ha [2, 15] was 75 to 84%. The pest or weed control at 140 g/ha [2, 15] was 85 to 94%, the pest or weed control at 35 g/ha [2, 16] was 0 to 29% and the pest or weed control at 70 g/ha [2, 16] was 0 to 29%. The pest or weed control at 140 g/ha [2, 16] was 0 to 29%, the pest or weed control at 35 g/ha [2, 17] was 0 to 29% and the pest or weed control at 70 g/ha [2, 17] was 0 to 29%. It also gave a pest or weed control at 140 g/ha [2, 17] of 0 to 29%, a pest or weed control at 35 g/ha [2, 18] of 0 to 29% and a pest or weed control at 70 g/ha [2, 18] of 0 to 29%. It also gave a pest or weed control at 140 g/ha [2, 18] of 0 to 29%, a pest or weed control at 35 g/ha [2, 19] of 0 to 29% and a pest or weed control at 70 g/ha [2, 19] of 0 to 29%. For the same compound, the pest or weed control at 140 g/ha [2, 19] was 0 to 29%.
